Legend:
[1] = system: redroot pigweed; assay: Test A pre-/postemergence herbicide test; type: in vivo, Amaranthus retroflexus
Procedure, shortened: (§1)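 Visual injury scores on a 0–100 scale (100 = complete control) taken about ten days post-treatment in greenhouse against untreated controls; dash means no result. Treatments: preemergence soil spray and postemergence spray to runoff on one- to two-leaf plants 2 to 10 cm tall, surfactant-containing formulation.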

[2] = system: yellow nutsedge; assay: Test C pre-/postemergence herbicide test; type: in vivo, Cyperus esculentus; conditions: preemergence
Procedure, shortened: (§2)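 Visual ratings on a 0–100 scale (100 = complete control) made versus untreated controls after 12 to 14 greenhouse days. Test chemicals, formulated in surfactant-containing non-phytotoxic solvent, applied preemergence to planted seeds or postemergence to 1- to 4-leaf plants (2 to 18 cm).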

[3] = system: lambsquarters; assay: Test C pre-/postemergence herbicide test; type: in vivo, Chenopodium album; conditions: preemergence
Procedure, shortened: as §2

[4] = system: eastern black nightshade; assay: Test C pre-/postemergence herbicide test; type: in vivo, Solanum ptycanthum; conditions: preemergence
Procedure, shortened: as §2

[5] = system: smallflower umbrella sedge; assay: Test C flooded paddy test; type: in vivo, Cyperus difformis
[6] = system: morningglory; assay: Test C pre-/postemergence herbicide test; type: in vivo, Ipomoea coccinea; set-up: key to Plant response rating, Morningglory: 0 = no effect, 100 = complete control; conditions: preemergence
Procedure, shortened: as §2

[7] = system: velvetleaf; assay: Test A pre-/postemergence herbicide test; type: in vivo, Abutilon theophrasti
Procedure, shortened: as §1

[8] = system: barnyardgrass; assay: Test C flooded paddy test; type: in vivo, Echinochloa crus-galli
Procedure, shortened: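 After a postemergence application at 1 to 4 leaves (plants 2–18 cm high), or at 2 leaves for barnyardgrass in flooded paddy, plants stayed in the greenhouse for 12 to 14 days. Damage was then judged visually relative to control plants, with 100 indicating complete control.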

[9] = system: bermudagrass; assay: Test C pre-/postemergence herbicide test; type: in vivo, Cynodon dactylon; conditions: for Plant response rating, Bermudagrass: preemergence
Procedure, shortened: as §2

[10] = system: common ragweed; assay: Test C pre-/postemergence herbicide test; type: in vivo, Ambrosia elatior; set-up: key to Plant response rating, Ragweed: 0 = no effect, 100 = complete control; conditions: preemergence
Procedure, shortened: as §2

[11] = system: giant foxtail; assay: Test C pre-/postemergence herbicide test; type: in vivo, Setaria faberi; conditions: preemergence
Procedure, shortened: as §2

[12] = system: morningglory; assay: Test A pre-/postemergence herbicide test; type: in vivo, Ipomoea spp.
Procedure, shortened: as §1

[13] = Postemergence, 500 g ai/ha, 0 to 100 scale, 0 no effect, 100 complete control
[14] = Postemergence, 2000 g ai/ha, 0 to 100 scale, 0 no effect, 100 complete control
[15] = Preemergence, 2000 g ai/ha, visual rating, 0 to 100 scale (0 no effect, 100 complete control)
[16] = preemergence, 500 g ai/ha, visual injury, 0 to 100 scale (0 no effect, 100 complete control)
[17] = 125 g ai/ha, scale 0 (no effect) to 100 (complete control), visual, 12 to 14 days
[18] = 500 g ai/ha, scale 0 to 100 (0 no effect, 100 complete control), visual, 12 to 14 days
[19] = 62 g ai/ha, scale 0 to 100 (0 no effect, 100 complete control)
[20] = 125 g ai/ha, scale 0 to 100 (0 no effect, 100 complete control)
[21] = 250 g ai/ha, scale of 0 to 100, 0 is no effect, 100 is complete control
[22] = 500 g ai/ha, visual rating after 12 to 14 days, scale 0 to 100 (0 no effect, 100 complete control)

For CCNC(=O)c1cccc(NC(=O)c2sc(C(C)(C)C)nc2CC)c1 [Compound 210], the “Pigweed plant response rating” value [1, 13] was 60, the “Plant response rating, Pigweed” value [1, 14] was 80 and the “Pigweed plant response rating” value [1, 15] was 100. The “Pigweed plant response rating” value [1, 16] was 100, the “Plant response rating, Nutsedge, Yellow” value ([2]; 62 g ai/ha, scale 0 to 100) was 0 and the “Plant response rating, Nutsedge, Yellow” value [2, 17] was 0. The “Plant response rating, Nutsedge, Yellow” value ([2]; 250 g ai/ha, scale 0-100) was 5, the “Plant response rating, Nutsedge, Yellow” value [2, 18] was 30 and the “Plant response rating, Lambsquarters” value ([3]; 62 g ai/ha, scale 0 to 100) was 100. The “Plant response rating, Lambsquarters” value [3, 17] was 100, the “Plant response rating, Lambsquarters” value ([3]; 250 g ai/ha, scale 0-100) was 100 and the “Plant response rating, Lambsquarters” value [3, 18] was 100. For the same compound, the “Plant response rating, Nightshade” value ([4]; 62 g ai/ha, scale 0 to 100) was 80, the “Plant response rating, Nightshade” value [4, 17] was 100 and the “Plant response rating, Nightshade” value ([4]; 250 g ai/ha, scale 0-100) was 100. For the same compound, the “Plant response rating, Nightshade” value [4, 18] was 100, the “Sedge, Umbrella plant response rating” value [5, 19] was 75 and the “Sedge, Umbrella plant response rating” value [5, 20] was 80. The “Sedge, Umbrella plant response rating” value [5, 21] was 85, the “Plant response rating, Sedge, Umbrella” value [5, 22] was 90 and the “Plant response rating, Morningglory” value ([6]; 62 g ai/ha, scale 0 to 100) was 0. For the same compound, the “Plant response rating, Morningglory” value [6, 17] was 0, the “Plant response rating, Morningglory” value ([6]; 250 g ai/ha, scale 0-100) was 5 and the “Plant response rating, Morningglory” value [6, 18] was 10. For the same compound, the “Velvetleaf plant response rating” value [7, 13] was 40, the “Plant response rating, Velvetleaf” value [7, 14] was 65 and the “Velvetleaf plant response rating” value [7, 15] was 95. For the same compound, the “Velvetleaf plant response rating” value [7, 16] was 70, the “Barnyardgrass plant response rating” value [8, 19] was 50 and the “Barnyardgrass plant response rating” value [8, 20] was 70. For the same compound, the “Barnyardgrass plant response rating” value [8, 21] was 85, the “Plant response rating, Barnyardgrass” value [8, 22] was 85 and the “Plant response rating, Bermudagrass” value ([9]; 62 g ai/ha, scale 0 to 100, 0 no effect, 100 complete control) was 80. The “Plant response rating, Bermudagrass” value [9, 17] was 80, the “Plant response rating, Bermudagrass” value ([9]; 250 g ai/ha, scale 0-100) was 100 and the “Bermudagrass plant response rating” value ([9]; Preemergence, 500 g ai/ha, scale 0 to 100, 0 no effect, 100 complete control) was 100. The “Plant response rating, Ragweed” value ([10]; 62 g ai/ha, scale 0 to 100) was 0, the “Plant response rating, Ragweed” value [10, 17] was 0 and the “Plant response rating, Ragweed” value ([10]; 250 g ai/ha, scale 0-100) was 90. The “Plant response rating, Ragweed” value [10, 18] was 90, the “Plant response rating, Foxtail, Giant” value ([11]; 62 g ai/ha, scale 0 to 100) was 0 and the “Plant response rating, Foxtail, Giant” value [11, 17] was 10. The “Plant response rating, Foxtail, Giant” value ([11]; 250 g ai/ha, scale 0-100) was 10, the “Plant response rating, Foxtail, Giant” value [11, 18] was 60 and the “Morningglory plant response rating” value [12, 13] was 20. For the same compound, the “Plant response rating, Morningglory” value [12, 14] was 25, the “Morningglory plant response rating” value [12, 15] was 100 and the “Morningglory plant response rating” value [12, 16] was 55.

From US20060069132A1, “Azolecarboxamide herbicides” (priority 2004, published 2006)
